For experiment [1], the target named is T1, recombinant human ALK5 (TGF-βR1) protein (Homo sapiens, UniProt P36897).
T1 construct: purchased Life Technologies PR9075A
T1 sequence (P36897 34-503): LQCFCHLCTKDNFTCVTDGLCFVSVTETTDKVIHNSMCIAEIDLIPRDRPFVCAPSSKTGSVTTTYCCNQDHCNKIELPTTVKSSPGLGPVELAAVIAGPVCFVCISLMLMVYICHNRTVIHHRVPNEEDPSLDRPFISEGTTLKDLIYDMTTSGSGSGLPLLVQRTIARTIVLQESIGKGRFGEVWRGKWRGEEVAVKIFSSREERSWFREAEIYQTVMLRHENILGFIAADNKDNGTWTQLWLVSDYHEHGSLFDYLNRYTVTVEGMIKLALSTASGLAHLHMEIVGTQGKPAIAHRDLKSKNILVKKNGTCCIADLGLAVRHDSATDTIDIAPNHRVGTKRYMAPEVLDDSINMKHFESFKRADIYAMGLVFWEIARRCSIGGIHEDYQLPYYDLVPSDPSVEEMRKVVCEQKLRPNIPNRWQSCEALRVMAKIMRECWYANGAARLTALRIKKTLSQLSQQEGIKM
Description: Biochemical ALK5 (TGF-βR1) assay to measure pKi (LANCE Ultra ULight kinase assay). The conditions noted are these: apparent pKi from pIC50 by Cheng-Prusoff, read-out: ALK5 pKi (converted). The method, boiled down:
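Dose range 10 μM–25 pM; enzyme + compound 60 min RT; ATP added (5× stock 125 μM, 2 mM DTT); 60 min 37 °C; stop with EDTA + Eu anti-phospho-Topo IIα Thr1342 Ab; TR-FRET ex 320/340, em 665 nm. 4-param pIC50 → pKi (Cheng-Prusoff).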
Background: TR-FRET usually uses a lanthanide donor and a delayed reading to cut background.

The test system of experiment [2] is TGF-β-stimulated SMAD3 phosphorylation in BEAS-2B cells. Nature of the experiment: Cellular ALK5 potency assay, inhibition of TGF-β stimulated pSMAD3 formation in BEAS-2B cells. The experiment is classed as cell-based. The conditions noted are these: Homo sapiens; inhibition of TGF-β stimulated pSMAD3 formation, BEAS-2B cells; read-out: BEAS2B pIC50 (converted). In short, it runs like this:
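SMAD3 phosphorylation was measured by AlphaLISA after 30 min TGF-β stimulation (10 ng/mL final) of BEAS-2B cells preincubated 1 h with compound at 37 °C. Results given as pIC50.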

The structures appear in SMILES notation.

`Cc1cccc(-c2n[nH]cc2-c2ccc3ncc(-c4nc5c([nH]4)CCNCC5)cc3n2)n1` [Compound 642, 2-[6-[3-(6-methyl-2-pyridyl)-1H-pyrazol-4-yl]-1,5-naphthyridin-3-yl]-1,4,5,6,7,8-hexahydroimidazo[4,5-d]azepine]: the Ki in experiment [1] is 0.0398 to 0.316 nM. Besides, in experiment [2], the IC50 is 200 to 1260 nM.
With `COc1[nH]nc(-c2cccc(C)n2)c1-c1ccc2ncc(NCCN3CCN(C(C)C)CC3)cc2n1` [Compound 394, N-[2-(4-isopropylpiperazin-1-yl)ethyl]-6-[5-methoxy-3-(6-methyl-2-pyridyl)-1H-pyrazol-4-yl]-1,5-naphthyridin-3-amine], in experiment [1], the Ki is 0.0398 to 0.316 nM. Also, in experiment [2], the IC50 was 200 to 1260 nM.
Turning to `Cc1cccc(-c2[nH]cnc2-c2ccc3ncc(-c4cc(C(=O)O[C@H]5CCNC5)cs4)cc3c2)n1` [Compound 885, [(3S)-pyrrolidin-3-yl] 5-[6-[5-(6-methyl-2-pyridyl)-1H-imidazol-4-yl]-3-quinolyl]thiophene-3-carboxylate], in experiment [1], the Ki is less than 0.0316 nM. In addition, the IC50 in experiment [2] was 25.1 to 158 nM.
Take `Cc1cccc(-c2[nH]cnc2-c2ccc3ncc(NC(=O)C4CNC4)cc3c2)n1` [Compound 579, N-[6-[5-(6-methyl-2-pyridyl)-1H-imidazol-4-yl]-3-quinolyl]azetidine-3-carboxamide]: the Ki in experiment [1] was 0.0398 to 0.316 nM. Further, in experiment [2], the IC50 is 1580 to 10000 nM.
Regarding `Cc1nc(-c2n[nH]cc2-c2ccc3ncc(-c4nc5c([nH]4)CNCC5)cc3n2)ccc1F` [Compound 425, 2-[3-(5-fluoro-6-methyl-2-pyridyl)-1H-pyrazol-4-yl]-7-(4,5,6,7-tetrahydro-3H-imidazo[4,5-c]pyridin-2-yl)-1,5-naphthyridine], the Ki in experiment [1] is 0.0398 to 0.316 nM. For the same compound, the IC50 in experiment [2] is 200 to 1260 nM.
Consider `Cc1cccc(-c2n[nH]cc2-c2ccc3nccc(CN(C)CCCN4CCOCC4)c3n2)n1` [Compound 853, N-methyl-N-[[6-[3-(6-methyl-2-pyridyl)-1H-pyrazol-4-yl]-1,5-naphthyridin-4-yl]methyl]-3-morpholino-propan-1-amine], for which the Ki in experiment [1] is 0.0398 to 0.316 nM. For the same compound, in experiment [2], the IC50 was 25.1 to 158 nM.
`Cc1cccc(-c2[nH]cnc2-c2ccc3ncc(-c4nccc(C(=O)OC5CNC5)n4)cc3c2)n1` [Compound 1075, azetidin-3-yl 2-[6-[5-(6-methyl-2-pyridyl)-1H-imidazol-4-yl]-3-quinolyl]pyrimidine-4-carboxylate]: the Ki in experiment [1] was 0.398 to 3.16 nM. Besides, in experiment [2], the IC50 is 200 to 1260 nM.
Take `Cc1cccc(-c2[nH]cnc2-c2ccc3ncc(-c4ccc(C(=O)O[C@@H]5CCNC5)cn4)cc3c2)n1` [Compound 1111, [(3R)-pyrrolidin-3-yl] 6-[6-[5-(6-methyl-2-pyridyl)-1H-imidazol-4-yl]-3-quinolyl]pyridine-3-carboxylate]: the Ki in experiment [1] is less than 0.0316 nM. Besides, the IC50 in experiment [2] is 25.1 to 158 nM.
For `COC(=O)C1CN(CCNc2cnc3ccc(-c4c[nH]nc4-c4cccc(C)n4)nc3c2)CCN1` (stereo not shown) [Compound 137, methyl 4-[2-[[6-[3-(6-methyl-2-pyridyl)-1H-pyrazol-4-yl]-1,5-naphthyridin-3-yl]amino]ethyl]piperazine-2-carboxylate], the Ki in experiment [1] was 0.0398 to 0.316 nM. The IC50 in experiment [2] was 1580 to 10000 nM.
In the same order, the values of `Cc1cccc(-c2[nH]cnc2-c2ccc3ncc(C(=O)OCCN4CCCCC4)cc3c2)n1` [Compound 887, 2-(piperidin-1-yl)ethyl 6-(5-(6-methylpyridin-2-yl)-1H-imidazol-4-yl)quinoline-3-carboxylate] are 0.0398 to 0.316 nM and 25.1 to 158 nM.
In the same order, the values of `Cc1cccc(-c2n[nH]cc2-c2ccc3ncc(-c4nn[nH]n4)cc3n2)n1` [Compound 177, 2-[3-(6-methyl-2-pyridyl)-1H-pyrazol-4-yl]-7-(2H-tetrazol-5-yl)-1,5-naphthyridine] are 0.0398 to 0.316 nM and 1580 to 10000 nM.
In the same order, the values of `Cc1cccc(-c2n[nH]cc2-c2ccc3ncc(-c4cn[nH]c4)c(C4CCCN4)c3c2)n1` (stereo not shown) [Compound 356] are 0.0398 to 0.316 nM and 200 to 1260 nM.
`Cc1cccc(-c2[nH]cnc2-c2ccc3ncc(-c4cccc5c4CNC5)cc3c2)n1` [Compound 636, 3-isoindolin-4-yl-6-[5-(6-methyl-2-pyridyl)-1H-imidazol-4-yl]quinoline]: the Ki in experiment [1] is 0.0398 to 0.316 nM. Besides, the IC50 in experiment [2] is 25.1 to 158 nM.
With `Cc1cccc(-c2[nH]ncc2-c2ccc3nccc(C(=O)O[C@H]4C[C@@H](N)C4)c3c2)n1` [Compound 1047, (3-aminocyclobutyl) 6-[5-(6-methyl-2-pyridyl)-1H-pyrazol-4-yl]quinoline-4-carboxylate], the Ki in experiment [1] was 0.398 to 3.16 nM. Moreover, the IC50 in experiment [2] is 25.1 to 158 nM.
As to `Cc1cccc(-c2[nH]cnc2-c2ccc3ncc(-c4ccc5c(c4)CC[C@H]5N)cc3c2)n1` [Compound 1154, (1R)-5-[6-[5-(6-methyl-2-pyridyl)-1H-imidazol-4-yl]-3-quinolyl]indan-1-amine], in experiment [1], the Ki was less than 0.0316 nM. In addition, in experiment [2], the IC50 is less than 20 nM.
In the same order, the values of `Cc1cccc(-c2[nH]nnc2-c2ccc3ncc(N4CCCNCC4)cc3n2)n1` [Compound 557, 7-(1,4-diazepan-1-yl)-2-[5-(6-methyl-2-pyridyl)-1H-triazol-4-yl]-1,5-naphthyridine] are 3.98 to 31.6 nM and 1580 to 10000 nM.
On to `Cc1cccc(-c2nc3ccccn3c2-c2ccc3ncc(N4CCNCC4)cc3c2)n1` [Compound 287, 6-[2-(6-methyl-2-pyridyl)imidazo[1,2-a]pyridin-3-yl]-3-piperazin-1-yl-quinoline], for which the Ki in experiment [1] is 0.0398 to 0.316 nM. Moreover, in experiment [2], the IC50 is 25.1 to 158 nM.
As to `CCc1cccc(-c2n[nH]cc2-c2ccc3ncc(N4CCC(N(C)C)CC4)cc3n2)n1` [Compound 348, 1-[6-[3-(6-ethyl-2-pyridyl)-1H-pyrazol-4-yl]-1,5-naphthyridin-3-yl]-N,N-dimethyl-piperidin-4-amine], the Ki in experiment [1] was less than 0.0316 nM. Besides, the IC50 in experiment [2] was 25.1 to 158 nM.
In the case of `Cc1nc(-c2nc3ccccn3c2-c2ccc3ncc(-c4cnn(C5CCCNC5)c4)cc3n2)ccc1F` (stereo not shown) [Compound 576, 2-[2-(5-fluoro-6-methyl-2-pyridyl)imidazo[1,2-a]pyridin-3-yl]-7-[1-(3-piperidyl)pyrazol-4-yl]-1,5-naphthyridine], the Ki in experiment [1] was 0.0398 to 0.316 nM. Further, the IC50 in experiment [2] is 25.1 to 158 nM.
Regarding `Cc1nc(-c2n[nH]cc2-c2ccc3ncc(-c4cn[nH]c4)cc3n2)ccc1F` [Compound 482, 2-[3-(5-fluoro-6-methyl-2-pyridyl)-1H-pyrazol-4-yl]-7-(1H-pyrazol-4-yl)-1,5-naphthyridine], the Ki in experiment [1] is less than 0.0316 nM. Further, the IC50 in experiment [2] is less than 20 nM.
The like results for `Cc1cccc(-c2[nH]cnc2-c2ccc3ncc(-c4nc(C(=O)OCCN5C[C@@H](C)N[C@@H](C)C5)cs4)cc3c2)n1` [Compound 1226, 2-[(3R,5S)-3,5-dimethylpiperazin-1-yl]ethyl 2-[6-[5-(6-methyl-2-pyridyl)-1H-imidazol-4-yl]-3-quinolyl]thiazole-4-carboxylate] were, in that order, 0.0398 to 0.316 nM and 25.1 to 158 nM.
`Cc1cccc(-c2n[nH]cc2-c2ccc3ncc(-c4nnc5n4CCNC5)cc3n2)n1` [Compound 40, 2-[3-(6-methyl-2-pyridyl)-1H-pyrazol-4-yl]-7-(5,6,7,8-tetrahydro-[1,2,4]triazolo[4,3-a]pyrazin-3-yl)-1,5-naphthyridine]: in experiment [1], the Ki was 3.98 to 31.6 nM. Also, the IC50 in experiment [2] is 1580 to 10000 nM.
In the case of `CC(=O)N[C@H]1CC=C(c2cnc3ccc(-c4nc[nH]c4-c4cccc(C)n4)cc3c2)CC1` [Compound 691, N-[(1R)-4-[6-[5-(6-methyl-2-pyridyl)-1H-imidazol-4-yl]-3-quinolyl]cyclohex-3-en-1-yl]acetamide], in experiment [1], the Ki is less than 0.0316 nM. Besides, the IC50 in experiment [2] was less than 20 nM.
For the compound `Cc1cccc(-c2nnn(Cc3ccccc3)c2-c2ccc3ncc(NCCN4CCN(C(C)C)CC4)cc3c2)n1` [Compound 584, 6-[3-benzyl-5-(6-methyl-2-pyridyl)triazol-4-yl]-N-[2-(4-isopropylpiperazin-1-yl)ethyl]quinolin-3-amine], the Ki in experiment [1] is 0.0398 to 0.316 nM. The IC50 in experiment [2] was 200 to 1260 nM.
For the compound `Cc1cccc(-c2n[nH]cc2-c2ccc3ncc(-c4ccc(=O)n(C)c4)cc3n2)n1` [Compound 345, 1-methyl-5-[6-[3-(6-methyl-2-pyridyl)-1H-pyrazol-4-yl]-1,5-naphthyridin-3-yl]pyridin-2-one], in experiment [1], the Ki is less than 0.0316 nM. In addition, the IC50 in experiment [2] is less than 20 nM.
Regarding `Cc1cccc(-c2n[nH]cc2-c2ccc3nccc(CCC(=O)N4CCOCC4)c3n2)n1` [Compound 810, 3-[6-[3-(6-methyl-2-pyridyl)-1H-pyrazol-4-yl]-1,5-naphthyridin-4-yl]-1-morpholino-propan-1-one], the Ki in experiment [1] is 0.398 to 3.16 nM. Further, in experiment [2], the IC50 was 200 to 1260 nM.

The values above are taken from patent US11590116B2 (THERAVANCE BIOPHARMA R&D IP, LLC, priority 2019, dated 2023).
